The values that follow come from US11192891B2, “Diazaspiro ROCK inhibitors” (BRISTOL-MYERS SQUIBB COMPANY, priority 2017, dated 2021).

Each structure is given as a SMILES string.

Sequence of ROCK2 (O75116 whole entry, species assumed): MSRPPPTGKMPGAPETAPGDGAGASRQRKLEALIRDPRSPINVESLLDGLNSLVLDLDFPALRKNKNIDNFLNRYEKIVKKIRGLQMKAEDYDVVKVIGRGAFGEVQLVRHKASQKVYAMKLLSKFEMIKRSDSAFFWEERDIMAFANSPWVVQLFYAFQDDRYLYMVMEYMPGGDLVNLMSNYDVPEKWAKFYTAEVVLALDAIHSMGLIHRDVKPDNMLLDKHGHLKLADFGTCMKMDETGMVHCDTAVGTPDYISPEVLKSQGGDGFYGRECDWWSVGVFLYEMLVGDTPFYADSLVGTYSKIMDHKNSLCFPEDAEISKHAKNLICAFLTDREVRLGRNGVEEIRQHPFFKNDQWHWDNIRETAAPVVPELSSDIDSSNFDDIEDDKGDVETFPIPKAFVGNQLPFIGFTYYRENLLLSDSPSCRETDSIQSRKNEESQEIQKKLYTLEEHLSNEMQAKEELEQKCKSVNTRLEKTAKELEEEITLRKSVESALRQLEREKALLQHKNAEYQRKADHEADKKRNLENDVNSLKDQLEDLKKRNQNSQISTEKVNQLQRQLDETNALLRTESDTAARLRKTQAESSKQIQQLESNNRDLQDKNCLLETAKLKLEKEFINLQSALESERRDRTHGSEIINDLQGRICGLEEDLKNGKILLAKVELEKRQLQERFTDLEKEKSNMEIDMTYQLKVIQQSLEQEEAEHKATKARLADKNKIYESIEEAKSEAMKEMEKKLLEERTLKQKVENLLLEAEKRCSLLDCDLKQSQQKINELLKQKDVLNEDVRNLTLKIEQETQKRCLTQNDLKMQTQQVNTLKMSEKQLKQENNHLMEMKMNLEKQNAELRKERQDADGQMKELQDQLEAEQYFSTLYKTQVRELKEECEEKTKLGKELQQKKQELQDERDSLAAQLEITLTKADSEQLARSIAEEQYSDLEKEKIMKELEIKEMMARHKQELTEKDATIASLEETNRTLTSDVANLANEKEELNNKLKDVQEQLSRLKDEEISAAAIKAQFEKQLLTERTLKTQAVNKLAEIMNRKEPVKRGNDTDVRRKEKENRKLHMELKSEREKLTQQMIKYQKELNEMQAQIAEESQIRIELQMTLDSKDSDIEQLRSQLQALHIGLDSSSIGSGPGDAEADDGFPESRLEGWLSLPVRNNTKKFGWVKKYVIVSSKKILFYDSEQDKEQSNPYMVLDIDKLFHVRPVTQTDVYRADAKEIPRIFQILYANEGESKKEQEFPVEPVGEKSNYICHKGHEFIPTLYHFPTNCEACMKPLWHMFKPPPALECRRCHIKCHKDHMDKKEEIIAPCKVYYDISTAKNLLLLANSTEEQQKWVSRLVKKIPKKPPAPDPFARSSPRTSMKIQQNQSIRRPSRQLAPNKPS

This assay has as its target ROCK2 (Homo sapiens, UniProt O75116). In words: ROCK kinase inhibition assay, FITC peptide substrate, LABCHIP 3000 readout. Type of assay: biochemical. As to conditions: 5 μM ATP, 1.5 μM peptide substrate. How it is done:
Compounds were dissolved in DMSO so that the final concentration of DMSO was <2%, and the reaction was initiated with Rho kinase variants. After incubation, the reaction was terminated by the addition of EDTA and the phosphorylated and non-phosphorylated peptides separated using a LABCHIP® 3000 Reader (Caliper Life Sciences). […] Compounds were tested in dose-response format, and the inhibition of kinase activity was calculated at each concentration of compound.
As usually defined, the IC50 is the concentration that inhibits the measured activity by half. `O=C(c1ccccc1)N1CCC2(CC1)CCN(c1ccc(-c3cn[nH]c3)cc1)C2=O` [Example 1, 8-benzoyl-2-[4-(1H-pyrazol-4-yl)phenyl]-2,8-diazaspiro[4.5]decan-1-one] displayed an IC50 of 326 nM.

In the case of `O=C1N(c2ccc(-c3cn[nH]c3)cc2)CCC12CCN(S(=O)(=O)c1ccccc1)CC2` [Example 2, 8-(benzenesulfonyl)-2-[4-(1H-pyrazol-4-yl)phenyl]-2,8-diazaspiro[4.5]decan-1-one], it took 330 nM to reach half-maximal inhibition (IC50).

For `COc1ccccc1C(=O)N1CCC2(CC1)CCN(c1ccc(-c3cn[nH]c3)cc1)C2=O` [Example 3, 8-(2-methoxybenzoyl)-2-[4-(1H-pyrazol-4-yl)phenyl]-2,8-diazaspiro[4.5]decan-1-one], half-maximal inhibition (IC50) required 160 nM.

Compound `COc1ccc(C(=O)N2CCC3(CC2)CCN(c2ccc(-c4cn[nH]c4)cc2)C3=O)cc1` [Example 4, 8-(4-methoxybenzoyl)-2-[4-(1H-pyrazol-4-yl)phenyl]-2,8-diazaspiro[4.5]decan-1-one] gave an IC50 of 21 nM.

`COc1cccc(C(=O)N2CCC3(CC2)CCN(c2ccc(-c4cn[nH]c4)cc2)C3=O)c1` [Example 5, 8-(3-methoxybenzoyl)-2-[4-(1H-pyrazol-4-yl)phenyl]-2,8-diazaspiro[4.5]decan-1-one]: the IC50 was determined as 85 nM.

Compound `Cn1nc(C(=O)N2CCC3(CC2)CCN(c2ccc(-c4cn[nH]c4)cc2)C3=O)c2ccccc21` [Example 6, 8-(1-methyl-1H-indazole-3-carbonyl)-2-[4-(1H-pyrazol-4-yl)phenyl]-2,8-diazaspiro[4.5]decan-1-one] yielded an IC50 of 143 nM.

In turn, `O=C(C1CC1)N1CCC2(CC1)CCN(c1ccc(-c3cn[nH]c3)cc1)C2=O` [Example 7, 8-cyclopropanecarbonyl-2-[4-(1H-pyrazol-4-yl)phenyl]-2,8-diazaspiro[4.5]decan-1-one] gave an IC50 of 875 nM.

In the case of `COc1c(F)cccc1C(=O)N1CCC2(CC1)CCN(c1ccc(-c3cn[nH]c3)cc1)C2=O` [Example 8, 8-(3-Fluoro-2-methoxybenzoyl)-2-[4-(1H-pyrazol-4-yl)phenyl]-2,8-diazaspiro[4.5]decan-1-one], the IC50 was determined as 112 nM.

As to `COc1cc(F)ccc1C(=O)N1CCC2(CC1)CCN(c1ccc(-c3cn[nH]c3)cc1)C2=O` [Example 9, 8-(4-fluoro-2-methoxybenzoyl)-2-[4-(1H-pyrazol-4-yl)phenyl]-2,8-diazaspiro[4.5]decan-1-one], the IC50 worked out at 241 nM.

The compound `O=C(c1ccc(OC(F)(F)F)cc1)N1CCC2(CC1)CCN(c1ccc(-c3cn[nH]c3)cc1)C2=O` [Example 10, 2-[4-(1H-pyrazol-4-yl)phenyl]-8-[4-(trifluoromethoxy)benzoyl]-2,8-diazaspiro[4.5]decan-1-one] had an IC50 of 95 nM.

Broadly, the EC50 is the midpoint of the concentration-response curve. Low values mean a more potent agent, high ones a less potent agent. The compound `COc1ccc(C(=O)N2CCC3(CC2)CCN(c2ccc(-c4cn[nH]c4)cc2)C3=O)cc1F` [Example 11, 8-(3-fluoro-4-methoxybenzoyl)-2-[4-(1H-pyrazol-4-yl)phenyl]-2,8-diazaspiro[4.5]decan-1-one] showed an EC50 of 16 nM.

In turn, `COc1ccccc1C(=O)N1CCC2(CC1)CCN(c1ccc(-c3cn[nH]c3)c(OC)c1)C2=O` [Example 12, 2-[3-methoxy-4-(1H-pyrazol-4-yl)phenyl]-8-(2-methoxybenzoyl)-2,8-diazaspiro[4.5]decan-1-one] displayed an IC50 of 54 nM.

The compound `COc1ccc(C(=O)N2CCC3(CC2)CCN(c2ccc(-c4cn[nH]c4)c(OC)c2)C3=O)cc1` [Example 13, 2-[3-methoxy-4-(1H-pyrazol-4-yl)phenyl]-8-(4-methoxybenzoyl)-2,8-diazaspiro[4.5]decan-1-one] came in with an IC50 of 8 nM.

For `COc1ccc(C(=O)N2CCC3(CC2)CCN(c2ccc(-c4cn[nH]c4)c(OC)c2)C3=O)cc1F` [Example 14, 8-(3-fluoro-4-methoxybenzoyl)-2-[3-methoxy-4-(1H-pyrazol-4-yl)phenyl]-2,8-diazaspiro[4.5]decan-1-one], the IC50 was 8 nM.

Turning to `COc1cc(N2CCC3(CCN(C(=O)c4ccc(CO)cc4)CC3)C2=O)ccc1-c1cn[nH]c1` [Example 15, 8-[4-(hydroxymethyl)benzoyl]-2-[3-methoxy-4-(1H-pyrazol-4-yl)phenyl]-2,8-diazaspiro[4.5]decan-1-one], the IC50 worked out at 53 nM.

The compound `COc1ccc(C(=O)N2CCC3(CC2)CCN(c2ccc(-c4cn[nH]c4)c(OC)c2)C3=O)nc1` [Example 16, 2-[3-methoxy-4-(1H-pyrazol-4-yl)phenyl]-8-(5-methoxypyridine-2-carbonyl)-2,8-diazaspiro[4.5]decan-1-one] showed an IC50 of 13 nM.

For the compound `COc1ccc(C(=O)N2CCC3(CC2)CCN(c2ccc(-c4cn[nH]c4)c(OC)c2)C3=O)c(F)c1` [Example 17, 8-(2-Fluoro-4-methoxybenzoyl)-2-[3-methoxy-4-(1H-pyrazol-4-yl)phenyl]-2,8-diazaspiro[4.5]decan-1-one], the IC50 was determined as 8 nM.

Take `COc1cc(N2CCC3(CCN(C(=O)c4ccc(Cl)cc4)CC3)C2=O)ccc1-c1cn[nH]c1` [Example 18, 8-(4-Chlorobenzoyl)-2-[3-methoxy-4-(1H-pyrazol-4-yl)phenyl]-2,8-diazaspiro[4.5]decan-1-one]: the IC50 worked out at 62 nM.

In turn, `COc1cc(N2CCC3(CCN(C(=O)c4ccc(C5CC5)cc4)CC3)C2=O)ccc1-c1cn[nH]c1` [Example 19, 8-(4-cyclopropylbenzoyl)-2-[3-methoxy-4-(1H-pyrazol-4-yl)phenyl]-2,8-diazaspiro[4.5]decan-1-one] yielded an IC50 of 10 nM.

Regarding `CCc1ccc(C(=O)N2CCC3(CC2)CCN(c2ccc(-c4cn[nH]c4)c(OC)c2)C3=O)cc1` [Example 20, 8-(4-ethylbenzoyl)-2-[3-methoxy-4-(1H-pyrazol-4-yl)phenyl]-2,8-diazaspiro[4.5]decan-1-one], the concentration for half-maximal inhibition (IC50) was found to be 50 nM.

With `COc1cc(N2CCC3(CCN(C(=O)c4ccc(N(C)C)cc4)CC3)C2=O)ccc1-c1cn[nH]c1` [Example 21, 8-[4-(dimethylamino)benzoyl]-2-[3-methoxy-4-(1H-pyrazol-4-yl)phenyl]-2,8-diazaspiro[4.5]decan-1-one], the midpoint of inhibition, the IC50, lay at 16 nM.

`COc1ccc(C(=O)N2CCC3(CC2)CCN(c2ccc(-c4cn[nH]c4)c(OC)c2)C3=O)cc1Cl` [Example 22, 8-(3-chloro-4-methoxybenzoyl)-2-[3-methoxy-4-(1H-pyrazol-4-yl)phenyl]-2,8-diazaspiro[4.5]decan-1-one] yielded a concentration for half-maximal inhibition (IC50) of 6 nM.

Take `COc1cc(N2CCC3(CCN(C(=O)c4ccc(C(N)=O)cc4)CC3)C2=O)ccc1-c1cn[nH]c1` [Example 23, 4-{2-[3-methoxy-4-(1H-pyrazol-4-yl)phenyl]-1-oxo-2,8-diazaspiro[4.5]decane-8-carbonyl}benzamide]: the midpoint of inhibition, the IC50, lay at 36 nM.

In turn, `COC(=O)c1ccc(C(=O)N2CCC3(CC2)CCN(c2ccc(-c4cn[nH]c4)c(OC)c2)C3=O)cc1` [Example 24, methyl 4-{2-[3-methoxy-4-(1H-pyrazol-4-yl)phenyl]-1-oxo-2,8-diazaspiro[4.5]decane-8-carbonyl}benzoate] returned an IC50 of 23 nM.

On to `COc1cc(N2CCC3(CCN(C(=O)c4ccc(C(=O)O)cc4)CC3)C2=O)ccc1-c1cn[nH]c1` [Example 25, 4-{2-[3-methoxy-4-(1H-pyrazol-4-yl)phenyl]-1-oxo-2,8-diazaspiro[4.5]decane-8-carbonyl}benzoic acid], for which inhibition was half-maximal at 1430 nM (IC50).

`COc1cc(N2CCC3(CCN(C(=O)c4ccc(C(=O)NCC5CC5)cc4)CC3)C2=O)ccc1-c1cn[nH]c1` [Example 26, N-(cyclopropylmethyl)-4-{2-[3-methoxy-4-(1H-pyrazol-4-yl)phenyl]-1-oxo-2,8-diazaspiro[4.5]decane-8-carbonyl}benzamide] had an IC50 of 119 nM.

Regarding `COc1cc(N2CCC3(CCN(C(=O)c4ccc(N5CCN(C)CC5)cc4Cl)CC3)C2=O)ccc1-c1cn[nH]c1` [Example 27, 8-[2-chloro-4-(4-methylpiperazin-1-yl)benzoyl]-2-[3-methoxy-4-(1H-pyrazol-4-yl)phenyl]-2,8-diazaspiro[4.5]decan-1-one], 0.8 nM corresponded to half-maximal inhibition (IC50).

In turn, `COc1cc(F)c(C(=O)N2CCC3(CC2)CCN(c2ccc(-c4cn[nH]c4)c(OC)c2)C3=O)c(F)c1` [Example 28, 8-(2,6-difluoro-4-methoxybenzoyl)-2-[3-methoxy-4-(1H-pyrazol-4-yl)phenyl]-2,8-diazaspiro[4.5]decan-1-one] registered an IC50 of 5 nM.

Turning to `COc1cc(OC)c(C(=O)N2CCC3(CC2)CCN(c2ccc(-c4cn[nH]c4)c(OC)c2)C3=O)c(OC)c1` [Example 29, 2-[3-methoxy-4-(1H-pyrazol-4-yl)phenyl]-8-(2,4,6-trimethoxybenzoyl)-2,8-diazaspiro[4.5]decan-1-one], the IC50 is 336 nM.

For `COc1cc(N2CCC3(CCN(C(=O)c4c(C)cc(C(N)=O)cc4C)CC3)C2=O)ccc1-c1cn[nH]c1` [Example 30, 4-{2-[3-methoxy-4-(1H-pyrazol-4-yl)phenyl]-1-oxo-2,8-diazaspiro[4.5]decane-8-carbonyl}-3,5-dimethylbenzamide], the 50% inhibitory concentration (IC50) is 130 nM.

`CN1CCN(c2ccc(C(=O)N3CCC4(CC3)CCN(c3ccc(-c5cn[nH]c5)cc3)C4=O)cc2)CC1` [Example 31, 8-[4-(4-methylpiperazin-1-yl)benzoyl]-2-[4-(1H-pyrazol-4-yl)phenyl]-2,8-diazaspiro[4.5]decan-1-one] yielded an IC50 of 0.7 nM.

`CN1CCN(c2ccc(C(=O)N3CCC4(CC3)CCN(c3ccc(-c5ccnc(O)c5)cc3)C4=O)cc2)CC1` [Example 32, 2-[4-(2-hydroxypyridin-4-yl)phenyl]-8-[4-(4-methylpiperazin-1-yl)benzoyl]-2,8-diazaspiro[4.5]decan-1-one] yielded an IC50 of 54 nM.

Compound `CN1CCN(c2ccc(C(=O)N3CCC4(CC3)CCN(c3ccc(-c5ccncc5F)cc3)C4=O)cc2)CC1` [Example 33, 2-[4-(3-fluoropyridin-4-yl)phenyl]-8-[4-(4-methylpiperazin-1-yl)benzoyl]-2,8-diazaspiro[4.5]decan-1-one] had an IC50 of 1.3 nM.
